The record followed here is PMC10265666, “Lung SPLUNC1 Peptide Derivatives in the Lipid Membrane Headgroup Kill Gram-Negative Planktonic and Biofilm Bacteria” (Biomacromolecules, 2023).

Several values for one entry are separate records, joined by “and”; a condition that tells them apart may be missing. Identical values can stand only once. Positions of bridges follow the written chain, without caps; N, C: chain ends. Non-standard residues stand in square brackets, D forms with d. Residues, ends and D or L forms follow the SMILES beside them. *: point of attachment. X1 = CC[C@H](C)CCCCC(=O)*; Dab = NCC[C@H](N)C(=O)O

Series [1] has as its system Klebsiella pneumoniae, 24 clinical isolates and 1 lab strain. Type of series: cell-based. The following applies: for antibacterial efficacy: tested G(−) bacteria (K. pneumoniae). Here is the method: Minimum inhibitory concentration (MIC, defined as the minimum AMP concentration to prevent bacterial growth) and biofilm data were obtained by UV–vis spectroscopy using a BioTek Epoch 2 microplate reader.
K. pneumoniae substrains were grown overnight using 50 mL plastic conical tubes on a shaker platform at 37 °C. The following day, serial dilutions of the four SPLUNC1 peptides and LL-37 were tested against these 25 substrains of K. pneumoniae using a 96-well plate. […] Following the addition of the peptides at the tested concentrations from serial dilutions to the K. pneumoniae substrains, the plates were incubated at 37 °C for 16 h. Then, visible spectroscopy at λ = 570 nm was performed to determine the bacterial absorption in each well. Those wells with an optical density reading above a threshold value were deemed resistant to the peptide, while those that were below the threshold value were deemed sensitive to the peptide. The threshold value was determined using Gen5 software with the Di lab Growth Inhibition Assay protocol.
Average MICs and standard deviations were calculated by first averaging the absorbances as a function of AMP concentration in all of the bacterial strains from four total data sets. Then, the average MICs were determined from the averaged absorbances. The standard deviations of the MICs were calculated from each of the absorbances that were used to calculate the average. Then, the standard deviations were averaged across substrains for the graph. These procedures were used to obtain an average MIC with standard deviation across all 25 substrains for one peptide, in order to compare peptide efficacy. Typically, many more substrains are used to obtain an average MIC, so this average MIC may change if thousands of substrains are compared.

Series [2] is described as follows: Circular dichroism secondary structure in Euk33 ULVs. The class given is physicochemical. The following applies: 10 μM peptide, 15 mM PBS pH 7, 37 °C.
A short description of series [3]: Circular dichroism secondary structure in G(−)IM ULVs. The class given is physicochemical. The following applies: 10 μM peptide, 15 mM PBS pH 7, 37 °C. How it is done: Unilamellar vesicles (ULVs) of ∼600 Å diameter were prepared using an Avanti extruder: 200 μL of 20 mg/ml G(−)IM lipid in 15 mM PBS was extruded 21 times through Nucleopore filters of size 500 Å using 0.2 mL Hamilton syringes in the Avanti extruder. The final concentration of G(−)IM lipid in the ULVs was determined gravimetrically to be 15 mg/ml. Concentrated ULVs were added to 3 mL of 10 μM peptide in 15 mM PBS at pH 7 to create lipid/peptide molar ratios between 0:1 and 70:1. The samples remained at room temperature for ∼16 h before the CD measurement. Data were collected in 3 mL quartz cuvettes using a Jasco 1500 CD spectrophotometer at 37 °C in the Center for Nucleic Acids Science and Technology at Carnegie Mellon University. The samples were scanned from 200 to 240 nm 20 times, and the ellipticity (ϵ) results were averaged. Temperature was controlled at 37 °C via a Peltier element and water circulation through the sample compartment. Nitrogen gas was used at a flow rate between 20 and 25 ft^3/h (CFH). The parameters for scanning were: speed 100 nm/min, step size 1.0 nm, response time 1 second, bandwidth 1 nm, and sensitivity of 20 mdeg. OriginPro 2019 (OriginLab, Northampton, MA) was used to carry out a linear least-squares fit of the smoothed ellipticity traces to four secondary structural motifs representing α-helix, β-sheet, β-turn, and random coil.[20] This analysis gives a percentage match of each of the secondary structural motifs to the total sample ellipticity. Data were finally converted to mean residue ellipticity, taking into account the peptide concentration (10 μMolar) and number of amino acids (N), using the equation: MRE = (10^4/N)ϵ deg cm^2/dmol.
A general note: Circular dichroism is the unequal absorption of left and right circularly polarised light.

Where [4] appears, read: G(−)IM/peptide molar ratio 10:1.
[5] abbreviates: G(−)IM/peptide molar ratio 15:1.
The mark [6] stands for this setting: G(−)IM/peptide molar ratio 20:1.
The mark [7] stands for this setting: G(−)IM/peptide molar ratio 30:1.
Setting [8] is: G(−)IM/peptide molar ratio 50:1.
The mark [9] stands for this setting: G(−)IM/peptide molar ratio 70:1.

`CC[C@H](C)CCCCC(=O)N[C@@H](CCN)C(=O)N[C@H](C(=O)N[C@@H](CCN)C(=O)N[C@H]1CCNC(=O)[C@H]([C@@H](C)O)NC(=O)[C@H](CCN)NC(=O)[C@H](CCN)NC(=O)[C@H](CC(C)C)NC(=O)[C@@H](CC(C)C)NC(=O)[C@H](CCN)NC1=O)[C@@H](C)O` [colistin, reference compound] (X1-[Dab]T[Dab][Dab][Dab][dL]L[Dab][Dab]T; lactam 4-C (inferred); N-terminus assumed): in series [1] (13 colistin-susceptible K. pneumoniae substrains), the “average MIC, colistin-susceptible substrains only” value was 0.88 µM. Moreover, in series [1] (colistin-sensitive K. pneumoniae substrains), the “MIC in the colistin-sensitive substrains” value was less than 2 µM.

As to “GVKKKWKKKLGLTLWLKISGVV [A4-198, version scrambled to α-helical content, with a similar hydrophobicity as A4-153]”, the “average MIC value” in series [1] (average over 25 K. pneumoniae substrains, 37 °C, 16 h, OD 570 nm, growth at 32 μM counted as 64 μM) was “highest MIC value”. For the same molecule, in series [1], the “antibacterial efficacy” value is “ineffective”. The Random came to 35.9% in series [2] (Euk33/peptide molar ratio 0:1); 34.7% in series [2] (Euk33/peptide molar ratio 5:1); 37.0% in series [2] (Euk33/peptide molar ratio 10:1); 38.7% in series [2] (Euk33/peptide molar ratio 30:1); 41.8% in series [2] (Euk33/peptide molar ratio 70:1); 35.9% in series [3] (G(−)IM/peptide molar ratio 0:1). In addition, the Random in series [3] (G(−)IM/peptide molar ratio 1:1) came out at 32.7%; in series [3] (G(−)IM/peptide molar ratio 5:1) it was 41.0%; in series [3] (setting [4]), 42.11%; in series [3] (setting [5]), 12.1%; in series [3] (setting [6]), 30.7%; in series [3] (setting [7]), 34.9%. Further, the figures for the Random in series [3] (setting [8]) and in series [3] (setting [9]) were 37.6% and 37.1%, respectively. Further, the α-helix in series [2] (Euk33/peptide molar ratio 0:1) is 2.9%; in series [2] (Euk33/peptide molar ratio 5:1), 5.7%; in series [2] (Euk33/peptide molar ratio 10:1) it was 5.9%; in series [2] (Euk33/peptide molar ratio 30:1) it was 6.2% and 6%; in series [2] (Euk33/peptide molar ratio 70:1), 10.3%; in series [3] (G(−)IM/peptide molar ratio 0:1), 2.9%. Also, the α-helix was 2.6% in series [3] (G(−)IM/peptide molar ratio 1:1); 22.0% in series [3] (G(−)IM/peptide molar ratio 5:1); 15.5% in series [3] (setting [4]); 9.1% in series [3] (setting [5]); 4.6% in series [3] (setting [6]); 0.2% in series [3] (setting [7]). The α-helix is recorded as 0.2% in series [3] (setting [8]) and 2.0% in series [3] (setting [9]). For the same molecule, the β-sheet is 56.7% in series [2] (Euk33/peptide molar ratio 0:1); 53.6% in series [2] (Euk33/peptide molar ratio 5:1); 51.9% in series [2] (Euk33/peptide molar ratio 10:1); 49.4% in series [2] (Euk33/peptide molar ratio 30:1); 47.9% in series [2] (Euk33/peptide molar ratio 70:1); 56.7% in series [3] (G(−)IM/peptide molar ratio 0:1). The β-sheet in series [3] (G(−)IM/peptide molar ratio 1:1) was 55.9%; in series [3] (G(−)IM/peptide molar ratio 5:1) it was 24.4%; in series [3] (setting [4]) it was 32.0%; in series [3] (setting [5]), 48.1%; in series [3] (setting [6]) it was 44.5%; in series [3] (setting [7]), 44.5%. The β-sheet in series [3] (setting [8]) came to 46.4%; in series [3] (setting [9]), 46.2%. Moreover, the β-turn was found to be 4.5% in series [2] (Euk33/peptide molar ratio 0:1); 6.0% in series [2] (Euk33/peptide molar ratio 5:1); 5.2% in series [2] (Euk33/peptide molar ratio 10:1); 5.7% in series [2] (Euk33/peptide molar ratio 30:1); 0% in series [2] (Euk33/peptide molar ratio 70:1); 4.5% in series [3] (G(−)IM/peptide molar ratio 0:1). For the same molecule, the β-turn worked out at 8.8% in series [3] (G(−)IM/peptide molar ratio 1:1); 12.6% in series [3] (G(−)IM/peptide molar ratio 5:1); 10.4% in series [3] (setting [4]); 30.7% in series [3] (setting [5]); 20.2% in series [3] (setting [6]); 20.4% in series [3] (setting [7]). Besides, the β-turn is 15.8% in series [3] (setting [8]) and 14.7% in series [3] (setting [9]).

Regarding “LL-37: the human cathelicidin, natural AMP control [reference compound]”, the “antibacterial efficacy” value in series [1] is recorded as “ineffective”.
